Target: T1, Ba/F3 cell EGFR Exon20 ins NPH (Homo sapiens, UniProt P00533, INS773NPH)
T1 construct: expressed in transfected cells; host or cells: Ba/F3
Assay: Ba/F3 cell proliferation suppression, EGFR Exon20 ins NPH
Format: cell-based
Conditions: GI50 class; Ba/F3 cell line with NPH inserted at Exon20 of EGFR; 72 hours
Summary of the method: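 Seed 3000–5000 cells/well; after 24 h add compound (12 conc., 0.3 nM–50 um final); incubate 72 h; add CellTiter-Glo, 10 min room temperature; read luminescence; GI50 from % growth vs control, triplicate.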

Row | SMILES | Ba/F3 (NPH) Activity
1 | C=CC(=O)Nc1cc(Nc2cc(N3OCC[C@@H]3c3cccc(OC)c3)ncn2)c(OC)cc1N1CC[C@@H](N2CCOCC2)C1 [compound 777, N-(4-methoxy-5-((6-((R)-3-(3-methoxyphenyl)isoxazolidine-2-yl)pyrimidine-4-yl)amino)-2-((R)-3-morpholinopyrolidine-1-yl)phenyl)acrylamide] | B (50 nM ≤ GI50 < 500 nM)
2 | C=CC(=O)Nc1cc(Nc2cc(N3OCC[C@@H]3c3ccc(Cl)c(Cl)c3)ncn2)c(OC)cc1N1CCN(CC2CC2)CC1 [compound 687, N-(2-(4-(cyclopropylmethyl)piperazine-1-yl)-5-((6-((R)-3-(3,4-dichlorophenyl)isoxazolidine-2-yl)pyrimidine-4-yl)amino)-4-methoxyphenyl) acrylamide] | A (GI50 < 50 nM)
3 | C=CC(=O)Nc1cc(Nc2cc(N3OCC[C@@H]3c3ccc(Cl)cc3)ncn2)c(OC)cc1N1CCC(N2CC[C@@H](N(C)C)C2)CC1 [compound 783, N-(5-((6-((R)-3-(4-chlorophenyl)isoxazolidine-2-yl)pyrimidine-4-yl)amino)-2-(4-((R)-3-(dimethylamino)pyrolidine-1-yl)piperidine-1-yl)-4-methoxyphenyl) acrylamide] | A (GI50 < 50 nM)
4 | C=CC(=O)Nc1cc(Nc2cc(N3OCC[C@@H]3c3cc(F)cc(F)c3)ncn2)c(OC)cc1N1CC[C@@H](N2CCOCC2)C1 [Example 271, N-(5-((6-((R)-3-(3,5-difluorophenyl)isoxazolidine-2-yl)pyrimidine-4-yl)amino)-4-methoxy-2-((R)-3-morpholinopyrolidine-1-yl)phenyl)acrylamide] | B (50 nM ≤ GI50 < 500 nM)
5 | C=CC(=O)Nc1cc(Nc2cc(N3OCC[C@@H]3c3ccc4ccccc4c3)ncn2)c(OC)cc1N(C)CCN(C)C [compound 511, N-(2-((2-(dimethylamino)ethyl)(methyl)amino)-4-methoxy-5-((6-((R)-3-(naphthalene-2-yl)isoxazolidine-2-yl)pyrimidine-4-yl)amino)phenyl)acrylamide] | A (GI50 < 50 nM)
6 | C=CC(=O)Nc1cc(Nc2cc(N3OCC[C@@H]3c3ccc(Cl)c(Cl)c3)ncn2)c(OC)cc1N1CC[C@@H](N(C)C)C1 [compound 682, N-(5-((6-((R)-3-(3,4-dichlorophenyl)isoxazolidine-2-yl)pyrimidine-4-yl)amino)-2-((R)-3-(dimethylamino)pyrolidine-1-yl)-4-methoxyphenyl) acrylamide] | A (GI50 < 50 nM)
7 | C=CC(=O)Nc1cc(Nc2cc(N3OCC[C@@H]3c3ccccc3)ncn2)c(OC)cc1N1CCN(C2COC2)CC1 [Example 18] | A (GI50 < 50 nM)
8 | C=CC(=O)Nc1cc(Nc2cc(N3OCC[C@@H]3c3cc(F)cc(Cl)c3)ncn2)c(OC)cc1N1CCC(N2C[C@@H]3C[C@H]2CO3)CC1 [compound 592, N-(2-(4-((1S,4S)-2-oxa-5-azabicyclo[2.2.1]heptane-5-yl)piperidine-1-yl)-5-((6-((R)-3-(3-chloro-5-fluorophenyl)isoxazolidine-2-yl)pyrimidine-4-yl)amino)-4-methoxyphenyl) acrylamide] | A (GI50 < 50 nM)
9 | C=CC(=O)Nc1cc(Nc2cc(N3OCC[C@@H]3Cc3ccc(C(F)(F)F)cc3)ncn2)c(OC)cc1N1CCC(N2CCN(C3CC3)CC2)CC1 [compound 1050, N-(2-(4-(4-cyclopropylpiperazine-1-yl)piperidine-1-yl)-4-methoxy-5-((6-((S)-3-(4-(trifluoromethyl)benzyl)isoxazolidine-2-yl)pyrimidine-4-yl)amino)phenyl) acrylamide] | B (50 nM ≤ GI50 < 500 nM)
10 | C=CC(=O)Nc1cc(Nc2cc(N3OCC[C@@H]3c3cccc(OC)c3)ncn2)c(OC)cc1N1CCN(C2COC2)CC1 [compound 730, N-(4-methoxy-5-((6-((R)-3-(3-methoxyphenyl)isoxazolidine-2-yl)pyrimidine-4-yl)amino)-2-(4-(oxetane-3-yl)piperazine-1-yl)phenyl) acrylamide] | B (50 nM ≤ GI50 < 500 nM)
11 | C=CC(=O)Nc1cc(Nc2cc(N3OCC[C@@H]3c3cccc(C)c3F)ncn2)c(OC)cc1N1CCC(N2CCN(C(C)C)CC2)CC1 [compound 911, N-(5-((6-((R)-3-(2-fluoro-3-methylphenyl)isoxazolidine-2-yl)pyrimidine-4-yl)amino)-2-(4-(4-isopropylpiperazine-1-yl)piperidine-1-yl)-4-methoxyphenyl) acrylamide] | A (GI50 < 50 nM)
12 | C=CC(=O)Nc1cc(Nc2cc(N3OCC[C@@H]3c3cccc(C#N)c3)ncn2)c(OC)cc1N1CCN(C2COC2)CC1 [compound 391, N-(5-((6-((R)-3-(3-cyanophenyl)isoxazolidine-2-yl)pyrimidine-4-yl)amino)-4-methoxy-2-(4-(oxetane-3-yl)piperazine-1-yl)phenyl) acrylamide] | B (50 nM ≤ GI50 < 500 nM)
13 | C=CC(=O)Nc1cc(Nc2cc(N3OCC[C@H]3Cc3ccccc3)ncn2)c(OC)cc1N1CCN(C)CC1 [compound 968, N-(5-((6-((R)-3-benzylisoxazolidine-2-yl)pyrimidine-4-yl)amino)-4-methoxy-2-(4-methylpiperazine-1-yl)phenyl)acrylamide] | C (500 nM ≤ GI50 < 5000 nM)
14 | C=CC(=O)Nc1cc(Nc2cc(N3OCC[C@@H]3Cc3cccc(Cl)c3C)ncn2)c(OC)cc1N1CCC(N2C[C@H]3C[C@@H]2CO3)CC1 [compound 1030, N-(2-(4-((1R,4R)-2-oxa-5-azabicyclo [2.2.1]heptane-5-yl)piperidine-1-yl)-5-((6-((S)-3-(3-chloro-2-methylbenzyl)isoxazolidine-2-yl)pyrimidine-4-yl)amino)-4-methoxyphenyl) acrylamide] | A (GI50 < 50 nM)
15 | C#Cc1cccc([C@H]2CCON2c2cc(Nc3cc(NC(=O)C=C)c(N4CCC(N5C[C@H]6C[C@@H]5CO6)CC4)cc3OC)ncn2)c1 [compound 619, N-(2-(4-((1R,4R)-2-oxa-5-azabicyclo [2.2.1]heptane-5-yl)piperidine-1-yl)-5-((6-((R)-3-(3-ethynylphenyl)isoxazolidine-2-yl)pyrimidine-4-yl)amino)-4-methoxyphenyl) acrylamide] | A (GI50 < 50 nM)
16 | C=CC(=O)Nc1cc(Nc2cc(N3OCC[C@@H]3c3cc(F)cc(Cl)c3)ncn2)c(OC)cc1N1CCC(N2C[C@H]3C[C@@H]2CO3)CC1 [compound 590, N-(2-(4-((1R,4R)-2-oxa-5-azabicyclo[2.2.1]heptane-5-yl)piperidine-1-yl)-5-((6-((R)-3-(3-chloro-5-fluorophenyl)isoxazolidine-2-yl)pyrimidine-4-yl)amino)-4-methoxyphenyl) acrylamide] | A (GI50 < 50 nM)
17 | C=CC(=O)Nc1cc(Nc2cc(N3OCC[C@@H]3c3ccc(C)nc3)ncn2)c(OC)cc1N1CCN(C2CCN(C)CC2)CC1 [Example 48, N-(4-methoxy-2-(4-(1-methylpiperidine-4-yl)piperazine-1-yl)-5-((6-((R)-3-(6-methylpyridine-3-yl)isoxazolidine-2-yl)pyrimidine-4-yl)amino)phenyl) acrylamide] | B (50 nM ≤ GI50 < 500 nM)
18 | C=CC(=O)Nc1cc(Nc2cc(N3OCC[C@@H]3c3ccc(F)cc3)ncn2)c(OC)cc1N1CCC(N2CCC(N(C)C)CC2)CC1 [compound 870, N-(2-(4-(dimethylamino)-[1,4'-bipiperidine]-1'-yl)-5-((6-((R)-3-(4-fluorophenyl)isoxazolidine-2-yl)pyrimidine-4-yl)amino)-4-methoxyphenyl) acrylamide] | A (GI50 < 50 nM)
19 | C=CC(=O)Nc1cc(Nc2cc(N3OCC[C@@H]3c3cc(F)ccc3F)ncn2)c(OC)cc1N(C)CCOC [compound 327, N-(5-((6-((R)-3-(2,5-difluorophenyl)isoxazolidine-2-yl)pyrimidine-4-yl)amino)-4-methoxy-2-((2-methoxyethyl) (methyl)amino)phenyl)acrylamide] | B (50 nM ≤ GI50 < 500 nM)
20 | C=CC(=O)Nc1cc(Nc2cc(N3OCC[C@@H]3c3ccc(F)cc3F)ncn2)c(OC)cc1N1CCC(N2C[C@H]3C[C@@H]2CO3)CC1 [compound 423, N-(2-(4-((1R,4R)-2-oxa-5-azabicyclo [2.2.1]heptane-5-yl)piperidine-1-yl)-5-((6-((R)-3-(2,4-difluorophenyl)isoxazolidine-2-yl)pyrimidine-4-yl)amino)-4-methoxyphenyl) acrylamide] | A (GI50 < 50 nM)
21 | C=CC(=O)Nc1cc(Nc2cc(N3OCC[C@@H]3Cc3ccccc3)ncn2)c(OC)cc1N1CCN(C(C)=O)CC1 [compound 948, N-(2-(4-acetylpiperazine-1-yl)-5-((6-((S)-3-benzylisoxazolidine-2-yl)pyrimidine-4-yl)amino)-4-methoxyphenyl) acrylamide] | A (GI50 < 50 nM)
22 | C=CC(=O)Nc1cc(Nc2cc(N3OCC[C@@H]3c3cc(F)cc(F)c3)ncn2)c(OC)cc1N1CCC(N2CCN(C(C)C)CC2)CC1 [Example 265, N-(5-((6-((R)-3-(3,5-difluorophenyl)isoxazolidine-2-yl)pyrimidine-4-yl)amino)-2-(4-(4-isopropylpiperazine-1-yl)piperidine-1-yl)-4-methoxyphenyl) acrylamide] | A (GI50 < 50 nM)
23 | C=CC(=O)Nc1cc(Nc2cc(N3OCC[C@@H]3c3cccc(Cl)c3F)ncn2)c(OC)cc1N1CCC(N2CCN(C3CC3)C[C@@H]2C)CC1 [Example 150, N-(5-((6-((R)-3-(3-chloro-2-fluorophenyl)isoxazolidine-2-yl)pyrimidine-4-yl)amino)-2-(4-((S)-4-cyclopropyl-2-methylpiperazine-1-yl)piperidine-1-yl)-4-methoxyphenyl) acrylamide] | A (GI50 < 50 nM)

Reference: US12157730B2, “Heteroaryl derivative, method for producing same, and pharmaceutical composition comprising same as effective component” (VORONOI INC., priority 2019, dated 2024)
